One assay addresses T1, recombinant PDE5 (Homo sapiens, UniProt O76074).
T1 construct: purchased CalBioChem
As to the kind of experiment: PDE5 activity, High-Efficiency Fluorescence Polarization Assay (HEFP). Type of assay: biochemical. The note with it: 45 minutes at room temperature, vs positive control Tadalafil, FIG. 12. As for the experimental part:
The compounds of the invention are tested to assess their affect on phosphodiesterase 5 (PDE5) activity. The affect on PDE5 activity is determined using the High-Efficiency Fluorescence Polarization Assay (HEFP) kit from Molecular Devices. The HEFP assay measures the activity of PDE-5 by using fluorescein-labeled derivatives of cGMP as a substrate. When hydrolyzed by PDE-5, fluorescein-labeled cGMP derivatives are able to bind to a binding reagent. The cGMP substrate:binding reagent complex results in a highly polarized fluorescent state.
After combining recombinant PDE5 (CalBioChem) and the cGMP substrate, the mixture is incubated at room temperature for 45 minutes in the presence or absence of compounds or a positive control (Tadalafil). The reaction is stopped upon addition of the binding reagent. Fluorescence polarization is determined on a Viewlux using a setting recommended by the manufacturer.
(In fluorescence polarisation assays a small probe gives low polarisation when free and higher when bound to something large.)

Assay [1] concerns hypoxia-inducible endogenous VEGF expression in HeLa cells. As to the kind of experiment: Hypoxia-inducible endogenous VEGF expression, VEGF ELISA of conditioned media (dose-response EC50). Type of assay: cell-based. In short, it runs like this:
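Secreted VEGF was quantified by ELISA against a per-assay standard curve after HeLa cells spent 24-48 h in 1% O2, 5% CO2, N2 balance with or without compound. Across a series of, e.g., seven concentrations, percentage inhibition (max 100%, min 0%) gave EC50 and CC50 values.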
(An ELISA detects its analyte on a solid surface through an enzyme-linked reagent.)

The next assay concerns fibrosarcoma tumor. Put plainly: Fibrosarcoma tumor growth in vivo. Also noted: species or system nude mice. The note with it: 10 mg/kg 3×/week, vs vehicle, FIG. 3. As for the experimental part: (§1) Compounds of the invention also show activity in the following pharmacodynamic model that assesses tumor VEGF levels. Briefly, HT1080 cells (a human fibrosarcoma cell line) may be implanted subcutaneously in nude mice. After seven days, mice may be administrated compounds orally at a desired dosage range, e.g., 200 mg/kg/day, for seven days. The tumors may then be excised from mice, weighed and homogenized in Tris-HCl buffer containing proteinase inhibitors. Moulder et al., Cancer Res. 61(24):8887-95 (2001). Tumor VEGF levels are subsequently measured using a human VEGF ELISA kit (R&D System). Protein concentrations of the homogenates are measured with a Bio-Rad Protein assay kit and tumor VEGF levels are normalized to the protein concentrations.
(§2) In similarly conducted experiments, compounds of the invention are shown to reduce lung cancer tumor growth (at a dosage of 3 mg/kg, twice a day, or 30 mg/kg, twice a day) (FIG. 1), Ewing's sarcoma and neuroblastoma tumor growth (at a dosage of 30 mg/kg, once a day) (FIG. 2), fibrosarcoma tumor growth (at a dosage of 10 mg/kg 3×/week) (FIG. 3), and human skin malignant melanoma (at a dosage of 10 mg/kg 5×/week) (FIG. 4) as compared to vehicle. Furthermore, the compounds of the invention are shown to reduce VEGF plasma and tumor levels in fibrosarcoma tumors as compared to vehicle (at a dosage of 10 mg/kg 3×/week) (FIG. 5).

Assay [2] concerns human skin malignant melanoma. Put plainly: Malignant melanoma tumor growth in vivo. The following applies: 10 mg/kg 5×/week, vs vehicle, FIG. 4. The arrangement: species or system nude mice. Here is the method: as §1, §2
The test system of the next assay is lung cancer tumor. As to the kind of experiment: Lung cancer tumor growth in vivo. The arrangement: species or system nude mice. The note with it: 3 mg/kg twice a day or 30 mg/kg twice a day, vs vehicle, FIG. 1. Here is the method: as §1, §2
The test system of the next assay is colon cancer tumor. As to the kind of experiment: Colon cancer tumor growth in vivo, alone or with 5-FU. Also noted: species or system nude mice. The note with it: alone or in combination with 5-FU (fluorouracil), FIG. 6.
In assay [3] the test system is neuroblastoma (SY5Y and NGP). Put plainly: Neuroblastoma tumor growth in vivo. The note with it: 30 mg/kg once a day, vs vehicle, FIG. 2. The arrangement: species or system nude mice. Here is the method:
as §1
as §2, with “5). […]” for “5).”

Another assay relates to VEGF. Put plainly: Tumor and plasma VEGF expression in vivo, alone or with Avastin. Also noted: species or system nude mice. The following applies: alone or in combination with Avastin, FIG. 9. As for the experimental part: as §1, §2
Assay [4] deals with HT1080 cells (a human fibrosarcoma cell line). As to the kind of experiment: In vivo tumor growth PD model, tumor and plasma VEGF levels by human VEGF ELISA. The arrangement: species or system nude mice. The following applies: 10 mg/kg 3×/week, vs vehicle, FIG. 5. As for the experimental part: as §1, §2
The test system of a further assay is tumor. Put plainly: Tumor growth in vivo, alone or with Avastin. The arrangement: species or system nude mice. The following applies: alone or in combination with Avastin (bevacizumab), FIG. 8. As for the experimental part:
as §1, §2

The subject of the next assay is VEGF mRNA. Put plainly: VEGF mRNA levels by Real-Time PCR under hypoxic conditions. Type of assay: cell-based, Human. The note with it: FIG. 11. As for the experimental part:
Human solid tumor cells are treated with various concentrations of a compound of the present invention or a control under hypoxic conditions. Actinomycin D blocks transcription and is used as a control. Total RNA is isolated using the RNeasy kit (Qiagen, Inc., Valencia, Calif., USA) or an acid-guanidinium thiocyanate-phenol-chloroform based method (See Chomczynski, P. and Sacchi, N., Anal. Biochem. 162: 156 (1987), hereby incorporated by reference).
Concentration of total RNA can be determined using the RiboGreen® fluorescent dye (Molecular Probes, Inc., Eugene, Oreg., USA) with the VersaFluor Fluorometer System (BioRad, Hercules, Calif., USA). Quality and integrity of total RNA can be assessed on 1% formaldehyde-agarose gels. First-strand cDNA was synthesized using 1 μg of total RNA (DNase-treated) in a 20 μl reverse transcriptase reaction mixture (Leclerc G J, Barredo J C, Clin. Cancer Res. 2001, 7:942-951, which is hereby incorporated by reference). A region of the VEGF mRNA is amplified using PCR primers. The cDNA amplified fragment (approximately 300 basepairs) is cloned into a vector such as the pCR2.1-TOPO vector (Invitrogen, Carlsbad, Calif., USA) to generate a plasmid. […] Real-Time quantitations are performed using the BIO-RAD iCycler iQ system (BioRad, Hercules, Calif., USA). The fluorescence threshold value can be calculated using the iCycle iQ system software.

The test system of assay [5] is Ewing's sarcoma (SK-NEP-1). Put plainly: Ewing's sarcoma tumor growth in vivo. The following applies: 30 mg/kg once a day, vs vehicle, FIG. 2. The arrangement: species or system nude mice. Here is the method:
as §1
as §2, with “5). […]” for “5).”

In assay [6] the test system is Ewing's sarcoma (SK-NEP-1) and neuroblastoma (SY5Y and NGP) tumors. As to the kind of experiment: Angiogenesis in excised tumors, immunochemistry with antibodies to Collagen IV. Type of assay: in vivo, mice. The following applies: Collagen IV staining of excised tumors, FIG. 10. From the text: The tumors excised from the mice can also be used in immunochemistry experiments to determine levels of angiogenesis. […] SK-NEP-1 cells were previously believed to be a useful Wilms tumor model.

In the next assay the test system is human cervical carcinoma. As to the kind of experiment: Cervical cancer tumor growth in vivo, alone or with Taxol. The arrangement: species or system nude mice. The following applies: alone or in combination with Taxol (paclitaxel), FIG. 7.
[7] abbreviates: Homo sapiens, HeLa cells under hypoxic conditions.
Setting [8] is: Homo sapiens, HeLa cells, hypoxic conditions (1% O2, 5% CO2).

The EC50 is the concentration needed to bring the measured effect to its halfway point.

As for `CCOC(=O)N1CCc2c([nH]c3ccc(Br)cc23)C1c1ccc(C(C)C)cc1` (stereo not drawn) [Compound 7], on recombinant PDE5, the PDE-5 activity result is on record as “do not inhibit the activity of PDE-5”. In assay [1] (setting [7]), the EC50 is under 8 nM.
Regarding `COc1ccc(C2c3[nH]c4ccc(Cl)cc4c3CCN2C(=O)Oc2ccc(Cl)cc2)cc1` (stereo not drawn) [Compound 10], on recombinant PDE5, the PDE-5 activity result is recorded as “do not inhibit the activity of PDE-5”. For the same compound, the fibrosarcoma tumor growth result in the assay on fibrosarcoma tumor is “inhibition of fibrosarcoma tumor growth”. Moreover, the “malignant melanoma tumor growth” value in assay [2] is listed as “inhibition of malignant melanoma tumor growth”. The “lung cancer tumor growth” value in the assay with lung cancer tumor was “inhibition of lung cancer tumor growth”. In [1] (setting [7]), this compound gave an EC50 of under 8 nM. Moreover, the “colon cancer tumor growth” value with colon cancer tumor is on record as “inhibition of colon cancer tumor growth”. The neuroblastoma tumor growth result in assay [3] is listed as “inhibition”. Besides, in the assay with VEGF, the “plasma VEGF expression” value is “inhibition” and the “tumor VEGF expression” value is “inhibition”. In [4], the “VEGF expression in a fibrosarcoma tumor (tumor VEGF levels)” value is “inhibition of VEGF expression”. Further, the tumor growth entry in the assay with tumor was “inhibition of tumor growth”. Also, the “VEGF mRNA levels” value in the assay with VEGF mRNA was “does not affect VEGF mRNA levels”. Further, the “Ewing's sarcoma tumor growth” value in assay [5] was “inhibition”. Also, the angiogenesis result in assay [6] is on record as “inhibition of angiogenesis”. Further, the “cervical cancer tumor growth” value in the assay on human cervical carcinoma is listed as “inhibition of cervical cancer tumor growth”.
Consider `CC(C)c1ccc(C2c3[nH]c4ccc(Br)cc4c3CCN2c2ncccn2)cc1` (stereo not drawn) [Compound 25], for which the PDE-5 activity result on recombinant PDE5 is reported as “do not inhibit the activity of PDE-5”. This compound also came in with an EC50 in [1] (setting [7]) of under 8 nM.
Consider `COCCN(C)CCCOc1ccc(C2c3[nH]c4ccc(Cl)cc4c3CCN2C(=O)Oc2ccc(F)cc2)cc1` (stereo not drawn) [Compound 992], for which the EC50 in assay [1] (setting [8]) was in the range of 40 to 200 nM.
`CN1CCN(CCCOc2ccc(C3c4[nH]c5ccc(Cl)cc5c4CCN3C(=O)Oc3ccc(F)cc3)cc2)CC1` (stereo not drawn) [Compound 993] showed an EC50 in assay [1] (setting [8]) of under 8 nM.
In the case of `O=C(Oc1ccc(F)cc1)N1CCc2c([nH]c3ccc(Cl)cc23)C1c1ccc(OCCCn2ccnc2)cc1` (stereo not drawn) [Compound 994], the EC50 in [1] (HeLa cells, hypoxic conditions (1% O2, 5% CO2)) was under 8 nM.
In assay [1] (setting [8]), `O=C(Oc1ccc(F)cc1)N1CCc2c([nH]c3ccc(Cl)cc23)C1c1ccc(OCCCn2ccnn2)cc1` (stereo not drawn) [Compound 995] gave an EC50 of under 8 nM.
In [1] (setting [8]), `O=C(Oc1ccc(Cl)cc1)N1CCc2c([nH]c3ccc(Cl)cc23)C1c1ccc(OCC(O)Cn2cncn2)cc1` (stereo not drawn) [Compound 996] returned an EC50 of under 8 nM.
